Like-named read-outs stand apart in the source and are kept apart here.
Assays:
Test in all cases: Test C pre/postemergence
Format in all cases: in vivo
[1] = system: cocklebur (Xanthium strumarium); conditions: Xanthium strumarium; for pest or weed control at 31 g/ha: 31 g ai/ha; for pest or weed control at 62 g/ha: 62 g ai/ha; for pest or weed control at 125 g/ha: 125 g ai/ha
Method in brief: (§1)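 Greenhouse herbicide screen, visual readout. Compound in solvent/surfactant applied preemergence at planting or postemergence to 1- to 4-leaf plants; assessed at 12–14 days on a 0–100 control scale.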

[2] = system: common (oilseed) sunflower (Helianthus annuus); conditions: Helianthus annuus, pre-emergence, Preemergence, scale 0 to 100, 0 no effect, 100 complete control, read-out: Plant response rating, Sunflower
Method in brief: as §1

[3] = system: morningglory (Ipomoea coccinea); conditions: Ipomoea; for pest or weed control at 31 g/ha: 31 g ai/ha; for pest or weed control at 62 g/ha: 62 g ai/ha; for pest or weed control at 125 g/ha: 125 g ai/ha
Method in brief: as §1

[4] = system: giant foxtail (Setaria faberii); conditions: Setaria faberi; for pest or weed control at 125 g/ha: 125 g ai/ha; for pest or weed control at 31 g/ha: 31 g ai/ha; for pest or weed control at 62 g/ha: 62 g ai/ha
Method in brief: as §1

[5] = system: lambsquarters (Chenopodium album); conditions: Chenopodium album; for pest or weed control at 31 g/ha: 31 g ai/ha; for pest or weed control at 62 g/ha: 62 g ai/ha; for pest or weed control at 125 g/ha: 125 g ai/ha
Method in brief: as §1

soybean (Glycine max) = conditions: Glycine max; for plant injury at 31 g/ha: 31 g ai/ha; for plant injury at 62 g/ha: 62 g ai/ha
Method in brief: as §1

[6] = post-emergence, Postemergence, read-out: Plant response rating (scale of 0 to 100), Cocklebur
[7] = pre-emergence, Preemergence, scale 0 to 100, 0 no effect, 100 complete control, read-out: Plant response rating, Cocklebur
[8] = post-emergence, Postemergence, read-out: Plant response rating (scale of 0 to 100), Morningglory
[9] = pre-emergence, Preemergence, scale 0 to 100, 0 no effect, 100 complete control, read-out: Plant response rating, Morningglory
[10] = post-emergence, Postemergence, read-out: Plant response rating (scale of 0 to 100), Foxtail, Giant
[11] = pre-emergence, Preemergence, scale 0 to 100, 0 no effect, 100 complete control, read-out: Plant response rating, Foxtail, Giant
[12] = post-emergence, Postemergence, read-out: Plant response rating (scale of 0 to 100), Lambsquarters
[13] = pre-emergence, Preemergence, scale 0 to 100, 0 no effect, 100 complete control, read-out: Plant response rating, Lambsquarters
[14] = post-emergence, Postemergence, read-out: Plant response rating (scale of 0 to 100), Soybean
[15] = pre-emergence, Preemergence, scale 0 to 100, 0 no effect, 100 complete control, read-out: Plant response rating, Soybean

Work on `Nc1nc(C2CC2)nc(C(=O)OCc2ccccc2)c1Cl` [Compound 78, phenylmethyl 6-amino-5-chloro-2-cyclopropyl-4-pyrimidinecarboxylate] yielded a pest or weed control at 31 g/ha [1, 6] of 90%, a pest or weed control at 62 g/ha [1, 6] of 100% and a pest or weed control at 125 g/ha ([1]; post-emergence, Postemergence, scale 0 to 100 (0 no effect, 100 complete control), read-out: Cocklebur plant response rating) of 100%. For the same molecule, the pest or weed control at 250 g/ha ([1]; post-emergence, Postemergence, 250 g ai/ha, scale 0 to 100, read-out: Plant response rating, Cocklebur) was 100%, the pest or weed control at 16 g/ha ([1]; pre-emergence, Preemergence, 16 g ai/ha, scale 0 to 100, 0 no effect, 100 complete control, read-out: Plant response rating, Cocklebur) was 55% and the pest or weed control at 31 g/ha [1, 7] was 70%. For the same molecule, the pest or weed control at 62 g/ha [1, 7] was 90%, the pest or weed control at 125 g/ha ([1]; pre-emergence, Preemergence, scale 0 to 100, read-out: Plant response rating, Cocklebur) was 90% and the pest or weed control at 16 g/ha ([2]; 16 g ai/ha) was 50%. The pest or weed control at 31 g/ha ([2]; 31 g ai/ha) was 70%, the pest or weed control at 62 g/ha ([2]; 62 g ai/ha) was 100% and the pest or weed control at 31 g/ha [3, 8] was 90%. It also gave a pest or weed control at 62 g/ha [3, 8] of 90%, a pest or weed control at 125 g/ha ([3]; post-emergence, Postemergence, scale 0 to 100 (0 no effect, 100 complete control), read-out: Morningglory plant response rating) of 100% and a pest or weed control at 250 g/ha ([3]; post-emergence, Postemergence, 250 g ai/ha, scale 0 to 100, read-out: Plant response rating, Morningglory) of 100%. For the same molecule, the pest or weed control at 16 g/ha ([3]; pre-emergence, Preemergence, 16 g ai/ha, scale 0 to 100, 0 no effect, 100 complete control, read-out: Plant response rating, Morningglory) was 0%, the pest or weed control at 31 g/ha [3, 9] was 70% and the pest or weed control at 62 g/ha [3, 9] was 85%. The pest or weed control at 125 g/ha ([3]; pre-emergence, Preemergence, scale 0 to 100, read-out: Plant response rating, Morningglory) was 100%, the pest or weed control at 125 g/ha ([4]; post-emergence, Postemergence, scale 0 to 100 (0 no effect, 100 complete control), read-out: Foxtail, Giant plant response rating) was 65% and the pest or weed control at 31 g/ha [4, 10] was 0%. The pest or weed control at 62 g/ha [4, 10] was 30%, the pest or weed control at 250 g/ha ([4]; post-emergence, Postemergence, 250 g ai/ha, scale 0 to 100, read-out: Plant response rating, Foxtail, Giant) was 70% and the pest or weed control at 16 g/ha ([4]; pre-emergence, Preemergence, 16 g ai/ha, scale 0 to 100, 0 no effect, 100 complete control, read-out: Plant response rating, Foxtail, Giant) was 0%. The pest or weed control at 31 g/ha [4, 11] was 0%, the pest or weed control at 62 g/ha [4, 11] was 0% and the pest or weed control at 125 g/ha ([4]; pre-emergence, Preemergence, scale 0 to 100, read-out: Plant response rating, Foxtail, Giant) was 0%. The pest or weed control at 31 g/ha [5, 12] was 90%, the pest or weed control at 62 g/ha [5, 12] was 95% and the pest or weed control at 125 g/ha ([5]; post-emergence, Postemergence, scale 0 to 100 (0 no effect, 100 complete control), read-out: Lambsquarters plant response rating) was 95%. It also gave a pest or weed control at 250 g/ha ([5]; post-emergence, Postemergence, 250 g ai/ha, scale 0 to 100, read-out: Plant response rating, Lambsquarters) of 100%, a pest or weed control at 16 g/ha ([5]; pre-emergence, Preemergence, 16 g ai/ha, scale 0 to 100, 0 no effect, 100 complete control, read-out: Plant response rating, Lambsquarters) of 0% and a pest or weed control at 31 g/ha [5, 13] of 70%. It also gave a pest or weed control at 62 g/ha [5, 13] of 80%, a pest or weed control at 125 g/ha ([5]; pre-emergence, Preemergence, scale 0 to 100, read-out: Plant response rating, Lambsquarters) of 80% and a plant injury at 31 g/ha (soybean (Glycine max); [14]) of 90%. The plant injury at 62 g/ha (soybean (Glycine max); [14]) was 100%, the plant injury at 125 g/ha (soybean (Glycine max); post-emergence, Postemergence, 125 g ai/ha, scale 0 to 100 (0 no effect, 100 complete control), read-out: Soybean plant response rating) was 100% and the plant injury at 250 g/ha (soybean (Glycine max); post-emergence, Postemergence, 250 g ai/ha, scale 0 to 100, read-out: Plant response rating, Soybean) was 100%. The plant injury at 16 g/ha (soybean (Glycine max); pre-emergence, Preemergence, 16 g ai/ha, scale 0 to 100, 0 no effect, 100 complete control, read-out: Plant response rating, Soybean) was 30%, the plant injury at 31 g/ha (soybean (Glycine max); [15]) was 70% and the plant injury at 62 g/ha (soybean (Glycine max); [15]) was 80%.
